This is an account of results in patent US20250114369A1, “COMPOUNDS AND METHODS FOR TREATMENT OF VIRAL INFECTIONS” (Gilead Sciences, Inc., priority 2023, published 2025).

SMILES strings stand for the structures. ≈ marks a conversion by molar mass, not a printed value.

The nature of one data set: physchem. It is filed as physicochemical. Conditions: pH 7, aqueous buffer, thermodynamic from solid. Here is the method:
The aqueous solubility of compounds over a time of 24 hours was assessed. Solubility was determined at ambient temperature in a 50 mM phosphate buffered pH7 solution with 150 mM NaCl (to achieve isotonicity). Solids were added to the buffered solution in 1.5-mL Eppendorf tubes, vortexed for 1 minute, then agitated for 24 hours in an Eppendorf ThermoMixer C. To determine concentration in solution, the suspensions were centrifuged for 15 min at 15,000 rpm. Supernatants were diluted to a volume of 1 mL with 30:70 v/v acetonitrile:water. All diluted supernatants were analyzed by UPLC using a Waters Acquity UPLC with a PDA UV detector.

In data set [1] the test system is Respiratory syncytial virus recombinant with luciferase (RSV-Luc5). In words: microbe, parasite or virus in culture. It is filed as cell-based. Conditions: human respiratory syncytial virus, NHBE, 72 h, read-out: RSV NHBE EC50 (nM).
Data set [2] in a line: in vitro. It is filed as in vitro ADME. Conditions: human, s9, pH 7.4. The protocol:
Duplicate aliquots of test compound or positive control substrate (GS-7340) were added to PMSF-free Intestinal S9 fractions diluted with 100 mM phosphate buffered saline, pH 7.4, to obtain a protein concentration of 1.0 mg/mL. The S9 metabolic reactions were initiated by the addition of the substrates to the S9 reaction mixture to a final concentration of 2 μM. At 0, 10, 20, 30, 60 and 120 min, 25 μL aliquots of the reaction mixture were transferred to plates containing 225 μl of IS/Q solution. After quenching, the plates were centrifuged at 3000×g for 30 minutes, and 150 μL aliquots of each supernatant were diluted with 150 μL water. Aliquots (10 μL) of the diluted supernatant were analyzed on a Thermo Q-Exactive mass spectrometer as described below. Quantification of test compounds and controls was performed by analyte/internal standard peak area ratio (PAR) values measured on a Thermo Q-Exactive mass spectrometer coupled to a Dionex UltiMate 3000 HPLC with a Leap Technologies HTC PAL autosampler. The column used was a Thermo Hypersil GOLD (1.9 μm particle size, 2.1×50 mm). Mobile phase A consisted of […] formic acid in water. Mobile phase B consisted of 0.1% (v/v) formic acid in acetonitrile. Elution of analytes was achieved by a series of linear gradients of acetonitrile in water containing 0.1% (v/v) formic acid. The mass spectrometer was calibrated on a weekly basis and mass tolerance of 5 ppm was used.

A short description of data set [3]: in vitro. It is filed as cell-based. Conditions: human. Here is the method:
Cytotoxicity of the compounds was determined in uninfected cells using the cell viability reagent in a similar fashion as described before for other cell types (Cihlar et al., Antimicrob Agents Chemother. 2008, 52(2):655-65). HEp-2 (1.5×10^3 cells/well) and MT-4 (2×10^3 cells/well) cells were plated in 384-well plates and incubated with the appropriate medium containing 3-fold serially diluted compound ranging from 15 nM to 100,000 nM. Cells were cultured for 4-5 days at 37° C. Following the incubation, the cells were allowed to equilibrate to 25° C., and cell viability was determined by adding Cell-Titer Glo viability reagent. The mixture was incubated for 10 min, and the luminescence signal was quantified using an Envision plate reader. Untreated cell and cells treated at 2 μM puromycin (Sigma, St. Louis, MO) serve as […] cell viability control, respectively. The percent of cell viability was calculated for each tested compound concentration relative to the 0% and 100% controls and the CC50 value was determined by non-linear regression as a compound concentration reducing the cell viability by […].

Data set [4] is classed as in vitro ADME. Conditions: 2 μM. Here is the method:
Duplicate aliquots of plasma were warmed to 37° C. and the metabolic reactions initiated by the addition of test compound (6 μL of 0.1 mM DMSO stock) or plasma stability standard (GS-7340) to obtain a final substrate concentration of 2 μM. At 0.05, 0.5, 1, 2, 3 and 4 hr, 25 μL aliquots of the reaction mixture were transferred to plates containing 225 μl of IS/Q quenching solution. After quenching, the plates were centrifuged at 3000×g for 30 minutes, and 150 μL supernatant was diluted with 150 μL water. Aliquots (10 μL) of the diluted supernatant were analyzed on a Thermo Q-Exactive mass spectrometer as described below. Quantification of test compounds and controls was performed by analyte/internal standard peak area ratio (PAR) values measured on a Thermo Q-Exactive mass spectrometer coupled to a Dionex UltiMate 3000 HPLC with a Leap Technologies HTC PAL autosampler. The column used was a Thermo Hypersil GOLD (1.9 μm particle size, 2.1×50 mm). Mobile phase A consisted of […] formic acid in water. Mobile phase B consisted of 0.1% (v/v) formic acid in acetonitrile. Elution of analytes was achieved by a series of linear gradients of acetonitrile in water containing 0.1% (v/v) formic acid. The mass spectrometer was calibrated on a weekly basis and mass tolerance of 5 ppm was used.

Data set [5] deals with Caco-2 cells (clone C2BBel). Description: CACO-2 permeability. It is filed as in vitro ADME. Conditions: donor pH 6.5, receiver pH 7.4; for DM Caco2 A to B: forward (A to B); for DM Caco2 B to A: reverse (B to A). Here is the method:
Pre-plated Caco-2 cells (clone C2BBel) were obtained from Sigma-Aldrich, Inc. (Atlanta, GA). Cell monolayers were grown to confluence on collagen-coated, microporous, polycarbonate membranes in 24-well transwell plates for 21 days. The permeability assay buffer in donor wells was Hanks' balanced salt solution (HBSS) containing 10 mM HEPES and 15 mM glucose at a pH of 6.5 containing 200 μM BNPP. The receiver wells used HBSS buffer containing 10 mM HEPES and 15 mM glucose at a pH of 7.4 and supplemented with 1% BSA. After an initial equilibration with transport buffer, TEER values were read to test membrane integrity. The experiment was started by the addition of buffers containing test compounds, 200 μl and 1000 μl in the apical and basolateral chamber, respectively. At 0- and 2-hour post dose, 10 μL was sampled from donor compartment and was immediately diluted in 190 μL of 20% methanol. At 1 and 2 hours post dose, 100 μl of solution was taken from the receiver compartments and was immediately diluted in 100 μl of 20% methanol. Removed buffer was replaced with fresh buffer and a correction was applied to all calculations for the removed material. Each compound was tested in 2 separate replicate wells for each condition. All samples were then extracted with 400 μl 100% acetonitrile with internal standard to precipitate protein. Cells were dosed on the apical or basolateral side to determine forward (A to B) and reverse (B to A) permeability. To test for non-specific binding and compound instability, the total amount of drug was quantitated at the end of the experiment and compared to the material present in the original dosing solution as a percent recovery. Formation of the parent compound (GS-441524; Reference Compound A) was monitored in assay wells dosed with the prodrug. Samples were analyzed by LC-MS/MS.

In data set [6] the test system is SARS Coronavirus 2 recombinant with NanoLuc (SARS-CoV2-NLuc). In words: organism not typed. It is filed as cell-based. Conditions: 48 h.
The nature of data set [7]: in vitro. It is filed as in vitro ADME. Conditions: human, s9, pH 7.4. Here is the method:
Duplicate aliquots of test compound or positive control substrate (GS-7340) were added to S9 stock diluted with 100 mM potassium phosphate buffer, pH 7.4, to obtain a protein concentration of 2.4 mg/mL. The S9 metabolic reactions were initiated by the addition of the substrates to the S9 reaction mixture to a final concentration of 2 μM. At 2, 12, 25, 45, 65 and 90 min, 25 μL aliquots of the reaction mixture were transferred to plates containing 225 μl of IS/Q solution. After quenching, the plates were centrifuged at 3000×g for 30 minutes, and 150 μL aliquots of each supernatant were diluted with 150 μL water. Aliquots (10 μL) of the diluted supernatant were analyzed on a Thermo Q-Exactive mass spectrometer as described below. Quantification of test compounds and controls was performed by analyte/internal standard peak area ratio (PAR) values measured on a Thermo Q-Exactive mass spectrometer coupled to a Dionex UltiMate 3000 HPLC with a Leap Technologies HTC PAL autosampler. The column used was a Thermo Hypersil GOLD (1.9 μm particle size, 2.1×50 mm). Mobile phase A consisted of […] formic acid in water. Mobile phase B consisted of 0.1% (v/v) formic acid in acetonitrile. Elution of analytes was achieved by a series of linear gradients of acetonitrile in water containing 0.1% (v/v) formic acid. The mass spectrometer was calibrated on a weekly basis and mass tolerance of 5 ppm was used.
The source holds these as a separate data set.
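For CC50 in this document: uninfected MT-4 cells over 4-5 days by CellTiter-Glo.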

`COC(=O)c1cn(C(=O)OC[C@H]2O[C@@](C#N)(c3ccc4c(N)ncnn34)[C@H](O)[C@@H]2O)c2ccccc12` [Compound 1, O1-[[(2R,3S,4R,5R)-5-(4-aminopyrrolo[2,1-f][1,2,4]triazin-7-yl)-5-cyano-3,4-dihydroxy-tetrahydrofuran-2-yl]methyl]O3-methyl indole-1,3-dicarboxylate] returned a thermodynamic solubility at 24 h in the data set “physchem” of 100 µg/mL (≈ 203 µM). Also, the EC50 was 5590 nM in data set [1] and 4.73 µM in data set [6]. In “in vitro [2]”, this molecule had a half-life at 2 μM of 2.05 h. Further, the CC50 in “in vitro [3]” is > 50 µM. Also, the “STA Human Plasma 37” value in data set [4] was 645.34. The “DM Caco2 A to B” value in data set [5] turned out to be 0.69. The “DM Caco2 B to A” value in data set [5] is listed as 12.34.

In the data set “physchem”, `N#C[C@@]1(c2ccc3c(N)ncnn23)O[C@H](COC(=O)n2cc(C(=O)OC3CCOCC3)c3ccccc32)[C@@H](O)[C@H]1O` [Compound 2, O1-[[(2R,3S,4R,5R)-5-(4-aminopyrrolo[2,1-f][1,2,4]triazin-7-yl)-5-cyano-3,4-dihydroxy-tetrahydrofuran-2-yl]methyl]O3-tetrahydropyran-4-yl indole-1,3-dicarboxylate] yielded a thermodynamic solubility at 24 h of 140 µg/mL (≈ 249 µM). Also, in data set [1], the EC50 came out at 14100 nM. This molecule yielded a half-life at 2 μM in “in vitro [2]” of 7.93 h. The CC50 in the data set “in vitro [3]” was > 50 µM. Further, in data set [4], the “STA Human Plasma 37” value was 1055.4. Further, in data set [5], the “DM Caco2 A to B” value amounted to 0.33 and the “DM Caco2 B to A” value was 13.49. Besides, in data set [6], the EC50 is 5.52 µM.

As to `CC(C)NC(=O)OC[C@H]1O[C@@](C#N)(c2ccc3c(N)ncnn23)[C@H](O)[C@@H]1O` [Compound 8, [(2R,3S,4R,5R)-5-(4-aminopyrrolo[2,1-f][1,2,4]triazin-7-yl)-5-cyano-3,4-dihydroxy-tetrahydrofuran-2-yl]methyl N-isopropylcarbamate], in the data set “physchem”, the solubility (thermodynamic) at 24 h was > 13000 µg/mL. In addition, the half-life at 2 μM in the data set “in vitro [7]” is ≥ 9.87 h; in the data set “in vitro [2]” it was 13.1 h. In addition, the figures for the EC50 in data set [1] and in data set [6] were > 50000 nM and 31.9 µM, respectively. Besides, the CC50 in “in vitro [3]” is > 50 µM. In data set [5], the “DM Caco2 A to B” value stood at 0.11. The “DM Caco2 B to A” value in data set [5] is 0.79.

For `CCOC(=O)c1cccn1C(=O)OC[C@H]1O[C@@](C#N)(c2ccc3c(N)ncnn23)[C@H](O)[C@@H]1O` [Compound 10, O1-[[(2R,3S,4R,5R)-5-(4-aminopyrrolo[2,1-f][1,2,4]triazin-7-yl)-5-cyano-3,4-dihydroxy-tetrahydrofuran-2-yl]methyl]O2-ethyl pyrrole-1,2-dicarboxylate], the half-life at 2 μM in the data set “in vitro [7]” is 0.0767 h; in the data set “in vitro [2]”, 0.0285 h. The EC50 in data set [1] worked out at 1520 nM; in data set [6], 5.16 µM. Besides, in “in vitro [3]”, the CC50 was > 50 µM. Besides, in data set [4], the “STA Human Plasma 37” value amounted to 68.966. Also, the “DM Caco2 A to B” value in data set [5] worked out at 0.22. Further, the “DM Caco2 B to A” value in data set [5] is 5.54.

`N#C[C@@]1(c2ccc3c(N)ncnn23)O[C@H](COC(=O)N2CCCCC2)[C@@H](O)[C@H]1O` [Compound 13, [(2R,3S,4R,5R)-5-(4-aminopyrrolo[2,1-f][1,2,4]triazin-7-yl)-5-cyano-3,4-dihydroxy-tetrahydrofuran-2-yl]methyl piperidine-1-carboxylate] had a solubility (thermodynamic) at 24 h in the data set “physchem” of 4480 µg/mL (≈ 11100 µM). Moreover, the values for the half-life at 2 μM in the data set “in vitro [7]” and in the data set “in vitro [2]” were ≥ 9.87 h and ≥ 13.2 h, respectively. Further, the EC50 in data set [1] was > 50000 nM; in data set [6], > 50 µM. Further, the CC50 in “in vitro [3]” was > 50 µM. In data set [4], the “STA Human Plasma 37” value worked out at 1584. In addition, the “DM Caco2 A to B” value in data set [5] stood at 0.3. The “DM Caco2 B to A” value in data set [5] amounted to 6.39.

Consider `CC(=O)O[C@H]1[C@@H](OC(C)=O)[C@](C#N)(c2ccc3c(N)ncnn23)O[C@@H]1COC(=O)N1CCCCCCC1` [Compound 19, [(2R,3R,4R,5R)-3,4-diacetoxy-5-(4-aminopyrrolo[2,1-f][1,2,4]triazin-7-yl)-5-cyano-tetrahydrofuran-2-yl]methyl azocane-1-carboxylate], for which the thermodynamic solubility at 24 h in “physchem” came to 110 µg/mL (≈ 214 µM). The half-life at 2 μM in the data set “in vitro [7]” is ≤ 0.0333 h; in the data set “in vitro [2]”, 0.0127 h. Moreover, the figures for the EC50 in data set [1] and in data set [6] were 18000 nM and 31.5 µM, respectively. Also, in the data set “in vitro [3]”, the CC50 is > 50 µM. For the same molecule, the “STA Human Plasma 37” value in data set [4] worked out at 14.703. Besides, in data set [5], the “DM Caco2 A to B” value came to 6.33. Also, the “DM Caco2 B to A” value in data set [5] is given as 13.32.
